Laboratory results: article PMC9698201, “Factors Affecting Cellular Uptake of Anthocyanins: The Role of pH, Glucose and Anthocyanin Structure” (Nutrients, 2022)

Assays:
Caco-2 cells = assay: Uptake experiment, anthocyanins taken up by cells quantified by HPLC; format: in vitro ADME, human; conditions: for uptake reduction in the presence of glucose: 20 µM red grape anthocyanin extract, 1 mM glucose vs control without glucose; for increase in uptake with decreasing pH from 7 to 6.5: 10 µM strawberry anthocyanins; for Normalised Uptake (%): extrapolated to initial amount 10 µg/10 mL, intercept set at zero; for Uptake (%): 1 h, % of initial concentration
Experimental: Caco-2 cells were seeded at a density of 5 × 10^5 cells in a Petri dish of 10 cm diameter with a volume of 10 mL, containing DMEM supplemented with 10% FBS, 1% NEAA and 1% penicillin and streptomycin. […] Caco-2 cells were used between passages 65–76. The medium was changed every 2–3 days. On day 14, the cells were ready for the uptake experiment. Prior to the study, the medium were removed, and the cells were rinsed with PBS.
The effect of anthocyanin structure was examined using anthocyanin extract from strawberry at 10 and 20 µM while the effect of glucose was performed at 20 µM red grape anthocyanin extract in the presence of 1 mM glucose. Additionally, 10 µM strawberry anthocyanins at pH 6.5 and 7 was used to examine the effect of pH on anthocyanin uptake.
Briefly anthocyanin stock solution was diluted to a final concentration of 10 or 20 µM in DPBS. The anthocyanins (10 mL) were immediately added to the cells, and subsequently incubated at 37 °C for 1h. Following the incubation, DPBS containing anthocyanins was removed and the cells were washed with PBS three times. The anthocyanins taken up by the cells were extracted with 6% formic acid and scraped off for collection. The extract along with the scraped cells were then sonicated, followed by centrifugation at 4 °C, 1700× g for 10 min. The supernatant was filtered and dried under nitrogen. The dry anthocyanins were redissolved in 200 µL of aqueous formic acid containing 10% acidified methanol, and then filtered into the insert prior to HPLC analysis.
HPLC was used to identify and quantify anthocyanins present in juices and cellular extract following the uptake experiment. Anthocyanin standards and their standard curves were used to identify and quantify different anthocyanin structure present in juices and cellular extracts by determining their area under curve. The analysis was performed using an Agilent 1200 series HPLC with quaternary pump and diode array UV-visible detector. Sample (50 µL) was injected onto a reverse phase column of Nova-pak@C18 4 µm, with dimensions of 4.6 × 250 mm (Waters) equipped with a guard column. The mobile phases were 1% aqueous formic acid as solvent A and acetonitrile as solvent B. The flow rate was 1 mL/min with a column temperature of 35 °C. […] Solvent B was maintained at 100% for 5 min, and returned to 100% solvent A and 0% solvent B at 60 min. Wavelengths of 280 and 520 nm were chosen to detect the anthocyanins.

[1] = Anthocyanin stability during 1 h incubation at pH 7 and 6.5; format: physicochemical
Experimental: To assess degradation due to the pH, strawberry juice extract was incubated under the same conditions in the absence of the cells (Figure 3II). […] Anthocyanins can form additional compounds important for copigmentation with phenolic acids and can form pyranoanthocyanins.
The increased uptake with decreasing pH may be linked to the anthocyanins stability and indicate the involvement of pH dependent transport mechanisms involving a proton co-transporter.

[2] = Extrapolation of Caco-2 uptake to jejunum uptake and blood/plasma concentration; conditions: absorption of 0.88 mg, assuming 5 litres of blood
[3] = set-up: method as in PMID 18211024; conditions: strawberries containing 222 µmol pelargonidin-3-O-glucoside ingested; cited from earlier work
[4] = strawberry anthocyanins at 10 µM, initial amount Cn 1.91, Pg 45.69, Pg-rham 14.50 µg/10 mL
[5] = strawberry anthocyanins at 20 µM, initial amount Cn 3.89, Pg 95.23, Pg-rham 29.59 µg/10 mL

Compound	uptake reduction in the presence of glucose (Caco-2 cells)	increase in uptake with decreasing pH from 7 to 6.5 (Caco-2 cells) [%]	Normalised Uptake (%) (Caco-2 cells)	Uptake (%) (Caco-2 cells; [4])	stability ([1]; pH 6.5, 1 h incubation) [%]	stability ([1]; pH 7, 1 h incubation) [%]	other results
OC[C@H]1O[C@@H](Oc2cc3c(O)cc(O)cc3[o+]c2-c2cc(O)c(O)c(O)c2)[C@H](O)[C@@H](O)[C@@H]1O [delphinidin-3-glucoside]	42%	–	–	–	–	–	–
pelargonidin-3-rhamnosylglucoside	–	88	0.02	2.66 × 10^−2%	91.8	72.3	Uptake (%) (Caco-2 cells; [5]): 5.93 × 10^−2%
OC[C@H]1O[C@@H](Oc2cc3c(O)cc(O)cc3[o+]c2-c2ccc(O)c(O)c2)[C@H](O)[C@@H](O)[C@@H]1O [cyanidin-3-glucoside]	67%	139	0.159	2.32 × 10^−2%	88.7	63.1	Uptake (%) (Caco-2 cells; strawberry anthocyanins at 20 µM, initial amount Cn 3.89, Pg 95.23, Pg-rham 29.59 µg/10 mL, listed as Cn): 6.54 × 10^−2%
OC[C@H]1O[C@@H](Oc2cc3c(O)cc(O)cc3[o+]c2-c2ccc(O)cc2)[C@H](O)[C@@H](O)[C@@H]1O [pelargonidin-3-glucoside]	–	118	0.007	2.88 × 10^−2%	93.7	67.7	Uptake (%) (Caco-2 cells; [5]): 6.95 × 10^−2%; blood concentration [2]: 400 nM; plasma concentration [2]: 727 nM
COc1cc(-c2[o+]c3cc(O)cc(O)c3cc2O[C@@H]2O[C@H](CO)[C@@H](O)[C@H](O)[C@H]2O)cc(O)c1O [petunidin-3-glucoside]	69–72%	–	–	–	–	–	–
COc1cc(-c2[o+]c3cc(O)cc(O)c3cc2O[C@@H]2O[C@H](CO)[C@@H](O)[C@H](O)[C@H]2O)cc(OC)c1O [malvidin-3-glucoside]	69–72%	–	–	–	–	–	–
pelargonidin-O-glucuronide	–	–	–	–	–	–	peak plasma concentration [3]: 274 ± 24 nM; time of peak plasma concentration [3]: 1.1 ± 0.4 h
